Reference: ChEMBL document CHEMBL1122660 (J Med Chem, 1984)

Tests used:
[1] = system: P388; experiment: Maximum percent T/C (antitumor activity) against P388 leukemia cells for Mitomycin C; type: functional, Mus musculus
[2] = system: P388; experiment: Maximum percent T/C (antitumor activity) against P388 leukemia cells; type: functional, Mus musculus
[3] = system: P388; experiment: Ratio of optimal dose (OD) and minimum effective dose (MED) required for antitumor activity in mice bearing P-388 lymphocytic leukemia; type: functional, Mus musculus
[4] = system: P388; experiment: Optimum dose (mg/kg) against P388 leukemic cells; type: functional, Mus musculus
[5] = system: P388; experiment: Minimum effective dose against P388 leukemic cells; type: functional; conditions: Mus musculus, read-out: MED
[6] = Partition coefficient between 1-octanol and water containing phosphate buffer at pH 7.4; type: physicochemical; conditions: 1-octanol/water containing phosphate buffer

SMILES	T/C [1]	T/C [2]	Therapeutic ratio [3]	OD [4]	minimal effective dose [5]	logD [6]
COC12[C@@H]3N[C@@H]3CN1C1=C(C(=O)C(Nc3nc4c(Cl)cccc4s3)=C(C)C1=O)[C@@H]2COC(N)=O (stereo partly drawn)	319%	144%	64	25.6 mg/kg	0.4 mg/kg	–
COC12[C@@H]3N[C@@H]3CN1C1=C(C(=O)C(Nc3cccc4nsnc34)=C(C)C1=O)[C@@H]2COC(N)=O (stereo partly drawn)	250%	161%	32	12.8 mg/kg	0.8 mg/kg	–
COC12[C@@H]3N[C@@H]3CN1C1=C(C(=O)C(Nc3nc4ccc([N+](=O)[O-])cc4s3)=C(C)C1=O)[C@@H]2COC(N)=O (stereo partly drawn)	156%	128%	1	25.6 mg/kg	25.6 mg/kg	–
COC12[C@@H]3N[C@@H]3CN1C1=C(C(=O)C(Nc3nc4ccccc4s3)=C(C)C1=O)[C@@H]2COC(N)=O (stereo partly drawn)	325%	150%	2	25.6 mg/kg	12.8 mg/kg	–
COC12[C@@H]3N[C@@H]3CN1C1=C(C(=O)C(Nc3ccc4[nH]ncc4c3)=C(C)C1=O)[C@@H]2COC(N)=O (stereo partly drawn)	250%	206%	128	25.6 mg/kg	0.2 mg/kg	–
COC12[C@@H]3N[C@@H]3CN1C1=C(C(=O)C(Nc3cccc(C#N)c3)=C(C)C1=O)[C@@H]2COC(N)=O (stereo partly drawn)	156%	172%	64	12.8 mg/kg	0.2 mg/kg	0.73
COc1ccccc1/N=C1/C(=O)C2=C(C(O)=C1C)N1C[C@H]3N[C@H]3C1(OC)[C@H]2COC(N)=O (stereo partly drawn)	206%	200%	128	25.6 mg/kg	0.4 mg/kg	–
COC12[C@@H]3N[C@@H]3CN1C1=C(C(=O)C(Nc3ccc(C#N)cc3)=C(C)C1=O)[C@@H]2COC(N)=O (stereo partly drawn)	233%	150%	4	3.2 mg/kg	0.8 mg/kg	0.72
COC12[C@@H]3N[C@@H]3CN1c1c(O)c(C)c(N=C3C=CC(=S)C=C3)c(O)c1[C@@H]2COC(N)=O (stereo partly drawn)	250%	131%	16	25.6 mg/kg	1.6 mg/kg	1.69
[H][C@@]12CN3c4c(O)c(C)c(/N=C5C=C/C(=N/C(N)=O)C=C\5)c(O)c4[C@H](COC(N)=O)C3(OC)[C@]1([H])N2 (stereo partly drawn)	278%	194%	16	25.6 mg/kg	1.6 mg/kg	0
COc1cc(NC2=C(C)C(=O)C3=C(C2=O)[C@H](COC(N)=O)C2(OC)[C@@H]4N[C@@H]4CN32)cc(OC)c1 (stereo partly drawn)	278%	161%	16	6.4 mg/kg	0.4 mg/kg	–
COc1cccc(NC2=C(C)C(=O)C3=C(C2=O)[C@H](COC(N)=O)C2(OC)[C@@H]4N[C@@H]4CN32)c1 (stereo partly drawn)	319%	181%	64	12.8 mg/kg	0.2 mg/kg	1.28
COC1=C/C(=N/c2c(C)c(O)c3c(c2O)[C@H](COC(N)=O)C2(OC)[C@@H]4N[C@@H]4CN32)C=CC1=N (stereo partly drawn)	311%	239%	16	25.6 mg/kg	1.6 mg/kg	–
COC12[C@@H]3N[C@@H]3CN1C1=C(C(=O)C(Nc3cccc(NC(C)=O)c3)=C(C)C1=O)[C@@H]2COC(N)=O (stereo partly drawn)	211%	231%	128	25.6 mg/kg	0.2 mg/kg	0.33
COC12[C@@H]3N[C@@H]3CN1C1=C(C(=O)C(Nc3ccccc3)=C(C)C1=O)[C@@H]2COC(N)=O (stereo partly drawn)	200%	161%	8	12.8 mg/kg	1.6 mg/kg	1.3
COC12[C@@H]3N[C@@H]3CN1C1=C(C(=O)C(Nc3cccc(Cl)c3)=C(C)C1=O)[C@@H]2COC(N)=O (stereo partly drawn)	156%	139%	2	12.8 mg/kg	6.4 mg/kg	2.01
COC12[C@@H]3N[C@@H]3CN1C1=C(C(=O)C(Nc3ccc(S(N)(=O)=O)cc3)=C(C)C1=O)[C@@H]2COC(N)=O (stereo partly drawn)	213%	225%	128	25.6 mg/kg	0.2 mg/kg	-0.52
COC12[C@@H]3N[C@@H]3CN1C1=C(C(=O)C(Nc3cccc(C)c3)=C(C)C1=O)[C@@H]2COC(N)=O (stereo partly drawn)	319%	181%	32	12.8 mg/kg	0.4 mg/kg	1.83
COC12[C@@H]3N[C@@H]3CN1C1=C(C(=O)C(Nc3cccc(O)c3)=C(C)C1=O)[C@@H]2COC(N)=O (stereo partly drawn)	211%	356%	>64	12.8 mg/kg	< 0.2 mg/kg	0.63
COC12[C@@H]3N[C@@H]3CN1C1=C(C(=O)C(Nc3ccc(F)cc3)=C(C)C1=O)[C@@H]2COC(N)=O (stereo partly drawn)	278%	167%	32	12.8 mg/kg	–	1.44
COC12[C@@H]3N[C@@H]3CN1C1=C(C(=O)C(Nc3ccc([N+](=O)[O-])cc3)=C(C)C1=O)[C@@H]2COC(N)=O (stereo partly drawn)	233%	172%	>16	3.2 mg/kg	< 0.2 mg/kg	1.02
COc1cc(/N=C2/C(=O)C3=C(C(O)=C2C)N2C[C@H]4N[C@H]4C2(OC)[C@H]3COC(N)=O)c2ncccc2c1 (stereo partly drawn)	178%	178%	16	6.4 mg/kg	0.4 mg/kg	–
COC12[C@@H]3N[C@@H]3CN1C1=C(C(=O)C(Nc3ccc(I)cc3)=C(C)C1=O)[C@@H]2COC(N)=O (stereo partly drawn)	200%	128%	1	25.6 mg/kg	25.6 mg/kg	2.42
COc1ccc(NC2=C(C)C(=O)C3=C(C2=O)[C@H](COC(N)=O)C2(OC)[C@@H]4N[C@@H]4CN32)cc1N (stereo partly drawn)	311%	228%	32	6.4 mg/kg	0.2 mg/kg	–
COC12[C@@H]3N[C@@H]3CN1C1=C(C(=O)C(Nc3ccc4c(c3)OCO4)=C(C)C1=O)[C@@H]2COC(N)=O (stereo partly drawn)	211%	167%	>16	3.2 mg/kg	< 0.2 mg/kg	–
